The target of assay [1] is T1, CAIX (Homo sapiens, UniProt Q16790).
T1 construct: purchased R&D Systems (Minneapolis, MN)
More on the design: method as in PMID 26418876. As to conditions: positive control, reported value; read-out: IC50 (binding to CAIX, same method); cited from earlier work.

Assay [2] has as its target T1, CAIX. Kind of assay: Competitive fluorescence polarization assay with FITC-labeled dual-motif ligand. The conditions noted are these: 100 nM CAIX, 80 nM FITC-labeled ligand; read-out: IC50 (binding to CAIX, fluorescence polarization). As to the method:
Fluorescence polarization (FP) experiments were performed in 21 μL of the assay buffer (12.5 mM Tris-HCl, pH 7.5, 75 mM NaCl) in transparent flat bottom 384 well Small Volume™ LoBase Microplates (Greiner Bio-One, Frickenhausen Germany). The FP reaction employed 100 nM of purified CAIX (R&D systems, Minneapolis, MN) and 80 nM FITC-labeled ligand within the assay buffer. The FP values were measured as mP units using the Safire2™ plate reader (Tecan, Morrisville, NC) with excitation at 475 nm and emission at 532 nm emission. 100 nM CAIX was incubated with serially diluted (from 8 μM to […]) concentrations of the three targeting molecules, 1 and [^63/65Cu]XYIMSR-06 for 30 min at room temperature in 384 well plates. 80 nM FITC-labeled ligand was added to each well and the reaction was incubated for 30 min at room temperature followed by FP measurements. Experiments were carried out in triplicate and the concentration resulting in 50% response (IC50) was calculated in GraphPad Prism 5 (GraphPad Software, La Jolla, CA) using the sigmoidal dose-response regression function. […]
amino)butyl)-1H-1,2,3-triazol-1-yl)butyl)-6,9-dioxa- (FP) assay as described in the experimental section. The 3,12,15,19,23-pentaazaoctacosyl)-1,4,7-triazonane-1,4- IC50 values determined for dual motif precursor 1 (Figure diyl)diacetic acid ([Al19F]XYIMSR-04) . […]
eluded at 35.5 min. MS, calculated for C H AlFN N Heart, lungs, pancreas, spleen, fat, brain, muscle, small […]
and tumor were collected. Each organ was weighed and Radiosynthesis the tissue radioactivity was measured with an automated gamma counter (1282 Compugamma CS, Pharmacia/
For convenience, Na18F in saline purchased from LKBNuclear, Inc., Mt. […] Due to was calculated by comparison with samples of a standard […]
Radiosynthesis of [Al18F]XYIMSR-04. 400μg of Data were expressed as mean ± standard deviation XYIMSR-04 in 200 μL water/Ethanol 1:1 was added to (SD). […] To this mixture, 20 μL of 2 mM AlCl3/NaOAc significance was calculated using a paired t test. […]

Like-named read-outs stand apart in the source and are kept apart here.

The term IC50 denotes the midpoint of a concentration-inhibition curve.

Regarding `CC(CCC(=O)NC(CC(=O)NC(CC(=O)NC(CCCCn1cc(CCCC(=O)Nc2nnc(S(N)(=O)=O)s2)nn1)C(=O)NCCOCCOCCN)C(=O)O)C(=O)O)(c1ccc(O)cc1)c1ccc(O)cc1` (stereo not shown) [Compound 1, reference compound], the IC50 on CAIX [1] was 75.9 nM; on CAIX [2] it was 63.6 ± 2.8 nM.
In the case of `CC(CCC(=O)N[C@@H](CC(=O)N[C@@H](CC(=O)N[C@@H](CCCCn1cc(CCCC(=O)Nc2nnc(S(N)(=O)=O)s2)nn1)C(=O)NCCOCCOCCNC(=O)C[N+]12CC[N+]34CC[N+]5(CC1)CC(=O)[O][Al-3]235([F])[O]C(=O)C4)C(=O)O)C(=O)O)(c1ccc(O)cc1)c1ccc(O)cc1` (stereo partly shown) [[Al^19F]XYIMSR-04], the IC50 at CAIX [2] was determined as 96.7 ± 3.3 nM.
With `CC(CCC(=O)N[C@@H](CC(=O)N[C@@H](CC(=O)N[C@@H](CCCCn1cc(CCCC(=O)Nc2nnc(S(N)(=O)=O)s2)nn1)C(=O)NCCOCCOCCNC(=S)Nc1ccc(CC2CN3CCN(CCN2CC(=O)O)CC(=O)[O][Cu][O]C(=O)C3)cc1)C(=O)O)C(=O)O)(c1ccc(O)cc1)c1ccc(O)cc1` (stereo partly drawn) [[^63/65Cu]XYIMSR-06, 2,2′,2″-(2-(4-(3-((11S,15S,19S)-15,19-Dicarboxy-24,24-bis(4-hydroxyphenyl)-10,13,17,21-tetraoxo-11-(4-(4-(4-oxo-4-((5-sulfamoyl-1,3,4-thiadiazol-2-yl)amino)butyl)-1H-1,2,3-triazol-1-yl)butyl)-3,6-dioxa-9,12,16,20-tetraazapentacosyl)thioureido)benzyl)-1,4,7-triazonane-1,4,7-triyl)triacetic acid], the half-inhibitory concentration (IC50) at CAIX [2] was determined as 156 ± 4.3 nM.

Source of the values: publication PMC5302928, “[^64Cu]XYIMSR-06: A dual-motif CAIX ligand for PET imaging of clear cell renal cell carcinoma” (Oncotarget, 2016).
